Laboratory results taken from paper PMC5546122, “Effects of Fungicides on Rat's Neurosteroid Synthetic Enzymes” (BioMed Research International, 2017).
Read-outs that look alike come from different tables or passages of the source.

Legend:
[1] = target: T1, RDH2 (retinol dehydrogenase 2) (Rattus norvegicus, UniProt P50170); experiment: radiometric TLC enzyme assay, transfected COS-1 microsomes; format: biochemical
T1 construct: gene Rdh16; full-length cDNA in pcDNA1.1, transient expression in COS-1 cells, microsomal fraction
T1 sequence (P50170 1-317): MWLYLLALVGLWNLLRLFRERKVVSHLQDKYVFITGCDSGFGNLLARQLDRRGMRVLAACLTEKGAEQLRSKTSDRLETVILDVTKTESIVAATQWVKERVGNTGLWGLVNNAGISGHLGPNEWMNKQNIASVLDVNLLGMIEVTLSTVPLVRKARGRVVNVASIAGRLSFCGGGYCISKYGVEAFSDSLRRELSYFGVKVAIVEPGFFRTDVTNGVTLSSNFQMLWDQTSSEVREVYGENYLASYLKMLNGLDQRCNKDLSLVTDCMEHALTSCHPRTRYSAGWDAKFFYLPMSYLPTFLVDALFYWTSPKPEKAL
From the text: radiometric TLC enzyme assay, transfected COS-1 microsomes on RDH2 (retinol dehydrogenase 2)

[2] = target: T2, 3α-HSD (3α-hydroxysteroid dehydrogenase; AKR1C14) (Rattus norvegicus, UniProt P23457); experiment: radiometric TLC enzyme assay, transfected COS-1 cytosol; format: biochemical
T2 construct: gene Akr1c9; Akr1c14 in pRc/CMV, transient expression in COS-1 cells, cytosolic fraction
T2 sequence (P23457 1-322): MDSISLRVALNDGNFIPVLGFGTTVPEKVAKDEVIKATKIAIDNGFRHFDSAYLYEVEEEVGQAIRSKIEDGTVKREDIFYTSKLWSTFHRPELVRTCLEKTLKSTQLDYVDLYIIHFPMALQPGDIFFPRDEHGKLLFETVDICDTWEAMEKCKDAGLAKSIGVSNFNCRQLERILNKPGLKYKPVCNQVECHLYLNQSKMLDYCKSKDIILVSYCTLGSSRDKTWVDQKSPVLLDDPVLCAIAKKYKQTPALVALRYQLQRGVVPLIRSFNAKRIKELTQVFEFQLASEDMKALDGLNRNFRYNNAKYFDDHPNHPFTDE
From the text: radiometric TLC enzyme assay, transfected COS-1 cytosol on 3α-HSD (3α-hydroxysteroid dehydrogenase; AKR1C14)

[3] = target: T3, 5α-Red1 (5α-reductase 1; SRD5A1) (Rattus norvegicus, UniProt P24008); experiment: radiometric TLC enzyme assay, transfected COS-1 microsomes; format: biochemical
T3 construct: Srd5a1 in pcDNA1.1, transient expression in COS-1 cells, microsomal fraction
T3 sequence (P24008 1-259): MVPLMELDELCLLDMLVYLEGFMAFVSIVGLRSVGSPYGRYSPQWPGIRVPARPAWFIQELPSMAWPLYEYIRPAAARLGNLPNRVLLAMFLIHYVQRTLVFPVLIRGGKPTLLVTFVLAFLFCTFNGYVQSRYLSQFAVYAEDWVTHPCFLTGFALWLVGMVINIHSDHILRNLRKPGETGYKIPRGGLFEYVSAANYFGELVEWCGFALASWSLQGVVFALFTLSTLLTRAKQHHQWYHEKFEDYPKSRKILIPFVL
From the text: radiometric TLC enzyme assay, transfected COS-1 microsomes on 5α-Red1 (5α-reductase 1; SRD5A1)

[4] = target: T3, 5α-Red1 (5α-reductase 1; SRD5A1); experiment: as above; format: biochemical; conditions: read-out: % of control activity at 100 μM
[5] = target: T1, RDH2 (retinol dehydrogenase 2); experiment: as above; format: biochemical; conditions: read-out: % of control activity at 100 μM
[6] = substrate: C[C@]12CCC(=O)C[C@@H]1CC[C@@H]1[C@@H]2CC[C@]2(C)[C@@H](O)CC[C@@H]12; experiment: cells, lysate or membranes; conditions: 0.2 mM NADPH, 0.0315–10 µM dihydrotestosterone, PBS pH 7.2, radiolabelled tracer
[7] = substrate: C[C@]12CC[C@@H](O)C[C@@H]1CC[C@@H]1[C@@H]2CC[C@]2(C)[C@@H](O)CC[C@@H]12; experiment: cells, lysate or membranes; conditions: 0.2 mM NAD+, 0.0315–10 µM DIOL, PBS pH 7.2, radiolabelled tracer
[8] = substrate: C[C@]12CC[C@H]3[C@@H](CCC4=CC(=O)CC[C@@]43C)[C@@H]1CC[C@@H]2O; experiment: cells, lysate or membranes; conditions: 0.2 mM NADPH, 0.0315–10 µM testosterone, PBS pH 7.2, radiolabelled tracer

With CC(C)(C)C(O)(CCc1ccc(Cl)cc1)Cn1cncn1 (stereo not drawn) [tebuconazole] the IC50 ([1]; read-out: 3α-HSD) was > 100 µM, the IC50 [2] was ~100 µM and the IC50 [3] was 8.67 ± 0.771 µM.

In the case of CC(C)(C)C(=O)C(Oc1ccc(Cl)cc1)n1cncn1 (stereo not drawn) [triadimefon], the IC50 ([1]; read-out: RDH2) is reported as > 100 µM, the IC50 [2] is reported as 26.49 ± 0.076 µM and the IC50 [3] is reported as 17.39 ± 0.079 µM.

C=CC1(C)OC(=O)N(c2cc(Cl)cc(Cl)c2)C1=O (stereo not drawn) [vinclozolin] gave a remaining activity at 100 µM [4] of 74.2 ± 5.57%, an IC50 [2] of ~100 µM and a remaining activity at 100 µM [5] of 85.5 ± 2.2%.

B1: 3α-HSD (3α-hydroxysteroid dehydrogenase; AKR1C14) (Rattus norvegicus) (protein)
chain: T2 sequence (P23457 1-322)
In the case of B1, the Km [6] is reported as 3.148 ± 0.197 µM and the Vmax [6] is reported as 6.67e-05 µmol/min/mg.

B2: RDH2 (retinol dehydrogenase 2) (Rattus norvegicus) (protein)
chain: T1 sequence (P50170 1-317)
B2 gave a Km [7] of 2.850 ± 0.037 µM and a Vmax [7] of 0.00053 µmol/min/mg.

B3: 5α-Red1 (5α-reductase 1; SRD5A1) (Rattus norvegicus) (protein)
chain: T3 sequence (P24008 1-259)
In the case of B3, the Km [8] is reported as 1.397 ± 0.35 µM and the Vmax [8] is reported as 3.49e-06 µmol/min/mg.
